Test results as given in patent US20130060024A1, “Compounds useful for treating neurodegenerative disorders” (SATORI PHARMACEUTICALS, INC., priority 2011, published 2013).
Read-outs that look alike come from different tables or passages of the source.

Tests used:
Type in all cases: cell-based
Conditions in all cases: Homo sapiens
[1] = system: Aβ-42; assay: Aβ-42 MSD 3-PLEX ELISA, conditioned media of 2B7 cells
Experimental: (§1) Assays were conducted to determine the ability of a Compound of Formula I to modulate […], […], and Aβ-38. Human (6E10) Ab 3-PLEX ELISA kits were purchased from Meso Scale Discovery Labs, 9328 Gaither Road, Gaithersburg, Md. 20877 (Catalog Number […]-3). Plates with capture antibodies were blocked for 1-2 hours at room temperature with 150 μL of the manufactures blocking reagent. Cultured 2B7 cells in 96 well plate with 250 μL of media per well until confluent; Prepared serial dilutions of compounds in DMSO at 100× the final desired concentration; Washed wells with 2B7 cells 1× with 250 μL of media; Diluted DMSO stocks 1:100 into media: Added 250 μL of media containing compounds (1% DMSO) to wells with 2B7 cells for 5 hours at 37° C. Diluted conditioned media: 1 part media with 1% DMSO and 1 part blocking buffer; 150 μL of the 250 μL of conditioned media were used. Seven point standard curve samples were prepared that contained Aβ-42, Aβ-40, and Aβ-38. The highest concentration of Aβ-42 and Aβ-38 was 3,000 pg/mL and the highest concentration of Aβ-40 was 10,000 pg/mL. Subsequent serial dilutions were 1:3 and the final composition of each sample was 1 part blocking buffer and 1 part cell medium containing 1% DMSO. Blocked plates are washed 5× with MSD wash buffer with a plate washer; 25 μL of detection antibody and blocker G reagent in MSD blocking solution was added; 25 μL of samples (1 part conditioned media containing 1% DMSO and 1 part MSD blocking buffer) were then added; Plates were incubated overnight at 4 degrees C. or 2 hours at room temperature. Washed wells 5× with MSD wash buffer; Added 150 μL 2×MSD read buffer; Read with MSD imager. Aβ peptide levels for each peptide were calculated from the standard curve using the MSD software provided with the MSD 2400 Imager. Percent vehicle values for each compound dosage were then calculated and fit to a 4 parameter curve generating IC50 values.

[2] = system: Aβ-38; assay: Aβ-38 MSD 3-PLEX ELISA, conditioned media of 2B7 cells
Experimental: as §1

[3] = system: Aβ-40; assay: Aβ-40 MSD 3-PLEX ELISA, conditioned media of 2B7 cells
Experimental: as §1

[4] = 5 h, read-out: Aβ 42 DR IC50 Inflection
[5] = 2B7 cells, 5 hours at 37° C., 1% DMSO, read-out: Aβ 42 IC50
[6] = 5 h, read-out: Aβ 38 DR IC50 Inflection
[7] = 2B7 cells, 5 hours at 37° C., 1% DMSO, read-out: Aβ 38 IC50
[8] = 2B7 cells, 5 hours at 37° C., 1% DMSO, read-out: Aβ 40 IC50
[9] = 5 h, read-out: Aβ 40 DR IC50 Inflection

| Compound | IC50 [1, 4] [nM] | IC50 [1, 5] [nM] | IC50 [2, 6] [nM] | IC50 [2, 7] [nM] | IC50 [3, 8] [nM] | IC50 [3, 9] [nM] |
| --- | --- | --- | --- | --- | --- | --- |
| CCO[C@@H]([C@H]1C[C@@H](C)[C@H]2[C@H](O1)[C@H](O)[C@@]1(C)[C@@H]3CC[C@H]4C(C)(C)[C@@H](OC(=O)N5CC(NC)C5)CC[C@@]45C[C@@]35CC[C@]21C)C(C)(C)O [Compound I-9] | 100 to 500 | 100 to 500 | 100 to 500 | 100 to 500 | 1000 to 5000 | – |
| CCO[C@@H]([C@H]1C[C@@H](C)[C@H]2[C@H](O1)[C@H](O)[C@@]1(C)[C@@H]3CC[C@H]4C(C)(C)[C@@H](OC(=O)NCCN5CC(F)(F)C5)CC[C@@]45C[C@@]35CC[C@]21C)C(C)(C)O [Compound I-18] | 100 to 500 | 100 to 500 | – | 501 to 1000 | > 5000 | – |
| CCO[C@@H]([C@H]1C[C@@H](C)[C@H]2[C@H](O1)[C@H](O)[C@@]1(C)[C@@H]3CC[C@H]4C(C)(C)[C@@H](OC(=O)N5CCN(CC(=O)O)CC5)CC[C@@]45C[C@@]35CC[C@]21C)C(C)(C)O [Compound I-5] | 100 to 500 | 100 to 500 | – | – | > 5000 | – |
| CCO[C@@H]([C@H]1C[C@@H](C)[C@H]2[C@H](O1)[C@H](O)[C@@]1(C)[C@@H]3CC[C@H]4C(C)(C)[C@@H](OC(=O)NC5CN(C6CN(C7CCC7)C6)C5)CC[C@@]45C[C@@]35CC[C@]21C)C(C)(C)O [Compound I-23] | – | 100 to 500 | – | 501 to 1000 | – | – |
| CCO[C@@H]([C@H]1C[C@@H](C)[C@H]2[C@H](O1)[C@H](O)[C@@]1(C)[C@@H]3CC[C@H]4C(C)(C)[C@@H](OC(=O)N5CC(N6CCC6)C5)CC[C@@]45C[C@@]35CC[C@]21C)C(C)(C)O [Compound I-20] | – | < 100 | – | 100 to 500 | – | – |
| CCO[C@@H]([C@H]1C[C@@H](C)[C@H]2[C@H](O1)[C@H](O)[C@@]1(C)[C@@H]3CC[C@H]4C(C)(C)[C@@H](OC(=O)NCCN5CCN(C6CCC6)CC5)CC[C@@]45C[C@@]35CC[C@]21C)C(C)(C)O [Compound I-19] | 100 to 500 | 100 to 500 | – | – | – | – |
| CCO[C@@H]([C@H]1C[C@@H](C)[C@H]2[C@H](O1)[C@H](O)[C@@]1(C)[C@@H]3CC[C@H]4C(C)(C)[C@@H](OC(=O)N(C)CC(=O)O)CC[C@@]45C[C@@]35CC[C@]21C)C(C)(C)O [Compound I-6] | – | 501 to 1000 | – | – | – | – |
| CCO[C@@H]([C@H]1C[C@@H](C)[C@H]2[C@H](O1)[C@H](O)[C@@]1(C)[C@@H]3CC[C@H]4C(C)(C)[C@@H](OC(=O)NCCN5CCC5)CC[C@@]45C[C@@]35CC[C@]21C)C(C)(C)O [Compound I-16] | 100 to 500 | 100 to 500 | – | – | – | – |
| CCO[C@@H]([C@H]1C[C@@H](C)[C@H]2[C@H](O1)[C@H](O)[C@@]1(C)[C@@H]3CC[C@H]4C(C)(C)[C@@H](OC(=O)N(C)C5CN(C)C5)CC[C@@]45C[C@@]35CC[C@]21C)C(C)(C)O [Compound I-2] | < 100 | < 100 | < 100 | 100 to 500 | 1000 to 5000 | > 5000 |
| CCO[C@@H]([C@H]1C[C@@H](C)[C@H]2[C@H](O1)[C@H](O)[C@@]1(C)[C@@H]3CC[C@H]4C(C)(C)[C@@H](OC(=O)N5CCN(C)CC5)CC[C@@]45C[C@@]35CC[C@]21C)C(C)(C)O [Compound I-8] | < 100 | < 100 | < 100 | 100 to 500 | 1000 to 5000 | > 5000 |
| CCO[C@@H]([C@H]1C[C@@H](C)[C@H]2[C@H](O1)[C@H](O)[C@@]1(C)[C@@H]3CC[C@H]4C(C)(C)[C@@H](OC(=O)NCCN5CCN(C6COC6)CC5)CC[C@@]45C[C@@]35CC[C@]21C)C(C)(C)O [Compound I-17] | 100 to 500 | 100 to 500 | – | 100 to 500 | 1000 to 5000 | – |
| CCO[C@@H]([C@H]1C[C@@H](C)[C@H]2[C@H](O1)[C@H](O)[C@@]1(C)[C@@H]3CC[C@H]4C(C)(C)[C@@H](OC(=O)N5CCN(CCOC)CC5)CC[C@@]45C[C@@]35CC[C@]21C)C(C)(C)O [Compound I-7] | 100 to 500 | 100 to 500 | – | 501 to 1000 | – | – |
| CCO[C@@H]([C@H]1C[C@@H](C)[C@H]2[C@H](O1)[C@H](O)[C@@]1(C)[C@@H]3CC[C@H]4C(C)(C)[C@@H](OC(=O)NCCNS(=O)(=O)C(F)(F)F)CC[C@@]45C[C@@]35CC[C@]21C)C(C)(C)O [Compound I-1] | – | 501 to 1000 | – | 1000 to 5000 | – | – |
| CCO[C@@H]([C@H]1C[C@@H](C)[C@H]2[C@H](O1)[C@H](O)[C@@]1(C)[C@@H]3CC[C@H]4C(C)(C)[C@@H](OC(=O)N5CCNCC5)CC[C@@]45C[C@@]35CC[C@]21C)C(C)(C)O [Compound I-10] | – | < 100 | – | 100 to 500 | – | – |
| CCO[C@@H]([C@H]1C[C@@H](C)[C@H]2[C@H](O1)[C@H](O)[C@@]1(C)[C@@H]3CC[C@H]4C(C)(C)[C@@H](OC(=O)NCCN5CC(F)C5)CC[C@@]45C[C@@]35CC[C@]21C)C(C)(C)O [Compound I-14] | 100 to 500 | 100 to 500 | – | – | – | – |
| CCO[C@@H]([C@H]1C[C@@H](C)[C@H]2[C@H](O1)[C@H](O)[C@@]1(C)[C@@H]3CC[C@H]4C(C)(C)[C@@H](OC(=O)N5CCNC(C(F)(F)F)C5)CC[C@@]45C[C@@]35CC[C@]21C)C(C)(C)O (stereo partly shown) [Compound I-3] | – | 100 to 500 | – | 1000 to 5000 | – | – |
| CCO[C@@H]([C@H]1C[C@@H](C)[C@H]2[C@H](O1)[C@H](O)[C@@]1(C)[C@@H]3CC[C@H]4C(C)(C)[C@@H](OC(=O)NCCN5CC(O)C5)CC[C@@]45C[C@@]35CC[C@]21C)C(C)(C)O [Compound I-15] | 100 to 500 | 100 to 500 | – | – | – | – |
| CCO[C@@H]([C@H]1C[C@@H](C)[C@H]2[C@H](O1)[C@H](O)[C@@]1(C)[C@@H]3CC[C@H]4C(C)(C)[C@@H](OC(=O)NCCN5CCN(CC(F)F)CC5)CC[C@@]45C[C@@]35CC[C@]21C)C(C)(C)O [Compound I-24] | 100 to 500 | 100 to 500 | – | – | 1000 to 5000 | – |
| CCO[C@@H]([C@H]1C[C@@H](C)[C@H]2[C@H](O1)[C@H](O)[C@@]1(C)[C@@H]3CC[C@H]4C(C)(C)[C@@H](OC(=O)N5CCN(C6COC6)CC5)CC[C@@]45C[C@@]35CC[C@]21C)C(C)(C)O [Compound I-4] | 100 to 500 | 100 to 500 | – | 1000 to 5000 | > 5000 | – |
| CCO[C@@H]([C@H]1C[C@@H](C)[C@H]2[C@H](O1)[C@H](O)[C@@]1(C)[C@@H]3CC[C@H]4C(C)(C)[C@@H](OC(=O)N5CC(N6CC(OC)C6)C5)CC[C@@]45C[C@@]35CC[C@]21C)C(C)(C)O [Compound I-21] | 100 to 500 | 100 to 500 | – | 501 to 1000 | – | – |
| CCO[C@@H]([C@H]1C[C@@H](C)[C@H]2[C@H](O1)[C@H](O)[C@@]1(C)[C@@H]3CC[C@H]4C(C)(C)[C@@H](OC(=O)NCCN(C)C)CC[C@@]45C[C@@]35CC[C@]21C)C(C)(C)O [Compound I-11] | 100 to 500 | 100 to 500 | – | – | – | – |
| CCO[C@@H]([C@H]1C[C@@H](C)[C@H]2[C@H](O1)[C@H](O)[C@@]1(C)[C@@H]3CC[C@H]4C(C)(C)[C@@H](OC(=O)NC5CN(C6CCC6)C5)CC[C@@]45C[C@@]35CC[C@]21C)C(C)(C)O [Compound I-22] | 100 to 500 | 100 to 500 | – | 501 to 1000 | 1000 to 5000 | – |
| CCO[C@@H]([C@H]1C[C@@H](C)[C@H]2[C@H](O1)[C@H](O)[C@@]1(C)[C@@H]3CC[C@H]4C(C)(C)[C@@H](OC(=O)NCCN5CC(OC)C5)CC[C@@]45C[C@@]35CC[C@]21C)C(C)(C)O [Compound I-13] | 100 to 500 | 100 to 500 | – | 1000 to 5000 | – | – |
| CCO[C@@H]([C@H]1C[C@@H](C)[C@H]2[C@H](O1)[C@H](O)[C@@]1(C)[C@@H]3CC[C@H]4C(C)(C)[C@@H](OC(=O)NCCN5CCOCC5)CC[C@@]45C[C@@]35CC[C@]21C)C(C)(C)O [Compound I-12] | 100 to 500 | 100 to 500 | – | 1000 to 5000 | > 5000 | – |
